As a reminder, the IC50 is the point on the concentration scale where inhibition reaches its midpoint. One may read the inhibition as the drop in the measured response relative to a control, in per cent.

T2 sequence (P19634 whole entry): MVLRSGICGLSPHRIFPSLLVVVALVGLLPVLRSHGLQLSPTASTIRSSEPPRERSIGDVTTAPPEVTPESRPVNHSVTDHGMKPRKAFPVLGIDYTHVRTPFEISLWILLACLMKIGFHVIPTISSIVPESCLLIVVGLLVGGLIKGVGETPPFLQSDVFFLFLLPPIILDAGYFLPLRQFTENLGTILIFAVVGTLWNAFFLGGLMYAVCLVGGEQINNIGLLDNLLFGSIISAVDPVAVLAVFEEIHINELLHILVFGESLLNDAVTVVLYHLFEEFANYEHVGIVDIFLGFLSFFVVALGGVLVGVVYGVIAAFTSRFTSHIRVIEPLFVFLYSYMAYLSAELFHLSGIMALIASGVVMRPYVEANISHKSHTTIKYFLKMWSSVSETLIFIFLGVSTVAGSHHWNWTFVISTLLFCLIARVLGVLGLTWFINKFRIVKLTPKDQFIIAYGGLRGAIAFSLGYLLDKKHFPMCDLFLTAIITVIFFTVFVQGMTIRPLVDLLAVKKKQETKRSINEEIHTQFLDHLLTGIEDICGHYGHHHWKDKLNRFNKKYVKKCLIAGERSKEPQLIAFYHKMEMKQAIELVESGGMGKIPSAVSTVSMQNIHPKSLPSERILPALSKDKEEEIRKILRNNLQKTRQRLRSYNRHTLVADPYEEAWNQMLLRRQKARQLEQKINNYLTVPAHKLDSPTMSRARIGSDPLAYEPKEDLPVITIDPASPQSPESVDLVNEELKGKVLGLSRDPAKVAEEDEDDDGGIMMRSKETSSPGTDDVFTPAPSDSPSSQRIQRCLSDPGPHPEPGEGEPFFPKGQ

One series concerns the target T1, urokinase from human kidney cells (human uPA) (Homo sapiens, UniProt P00749).
T1 construct: low molecular weight active human uPA; purchased Sigma-Aldrich U4010; host or cells: human kidney cells
In words: uPA inhibition assay (fluorescence-based, purified enzyme). The class given is biochemical.
Conditions: not given
With `COc1ccc2oc(-c3nc(C(=O)NC(=N)N)c(N)nc3N)cc2c1` [compound 14], the “higher uPA activity than its HMA congener 15” value is above 3 fold.

The series is the same for the next values; noted with them: purified enzyme, Z-Gly-Gly-Arg-AMC substrate; number in parentheses after value; read-out: uPA IC50.
Turning to `COc1ccc2oc(-c3nc(C(=O)NC(=N)N)c(N)nc3N)cc2c1` [compound 14], the IC50 was found to be 0.467 ± 0.022 µM.
With `N=C(N)NC(=O)c1nc(-c2cc3ncccc3o2)c(N)nc1N` [compound 20], the IC50 stood at 0.453 µM.
For the compound `COc1ccc2oc(-c3nc(C(=O)NC(=N)N)c(N)nc3N3CCCCCC3)cc2c1` [compound 15], the IC50 was 1.69 µM.
On to `N=C(N)NC(=O)c1nc(-c2cc3ccccc3o2)c(N2CCCC2)nc1N` [compound 31], for which the IC50 is 0.546 ± 0.024 µM.
On to `N=C(N)NC(=O)c1nc(-c2cc3cc(Br)ccc3o2)c(N)nc1N` [compound 12], for which the IC50 was 5.93 µM.
Regarding `COc1ncc(-c2nc(C(=O)NC(=N)N)c(N)nc2N)cn1` [compound 25], the IC50 turned out to be 0.333 ± 0.022 µM.
In the case of `N=C(N)NC(=O)c1nc(-c2cc3ncccc3o2)c(N2CCCCCC2)nc1N` [compound 21], the IC50 came out at 0.038 µM.
Regarding `Cc1ccc2oc(-c3nc(C(=O)NC(=N)N)c(N)nc3N)cc2c1` [compound 6], the IC50 is 1.05 µM.
Take `N=C(N)NC(=O)c1nc(-c2ccc(C(F)(F)F)cc2)c(C2CC2)nc1N` [compound 40]: the IC50 is 16.2 µM.
As to `N=C(N)NC(=O)c1nc(-c2cc3cc(Br)ccc3o2)c(N2CCCCCC2)nc1N` [compound 13], the IC50 amounted to 2.56 µM.
As for `N=C(N)NC(=O)c1nc(-c2cc3ccccc3o2)c(N2CCCCC2)nc1N` [compound 32], the IC50 worked out at 1.88 µM.
On to `N=C(N)NC(=O)c1nc(-c2cc3ccccc3o2)c(N2CCCOCC2)nc1N` [compound 37], for which the IC50 was found to be 0.149 ± 0.017 µM.
Take `N=C(N)NC(=O)c1nc(-c2ccc(C(F)(F)F)cc2)c(N2CCCCCC2)nc1N` [compound 23]: the half-inhibitory concentration (IC50) is 6.91 µM.
For `N=C(N)NC(=O)c1nc(-c2cc3cc(F)cc(F)c3o2)c(N2CCCCCC2)nc1N` [compound 17], the half-maximal inhibitory concentration (IC50) is 0.38 ± 0.01 µM.
As to `N=C(N)NC(=O)c1nc(-c2cncnc2)c(N2CCOCC2)nc1N` [compound 41], the IC50 is 0.563 ± 0.029 µM.

A further series has as its target T2, NHE1 (Homo sapiens, UniProt P19634).
T2 construct: endogenous in cells; host or cells: MDA-MB-231
In words: Plate-based NHE1 inhibition assay (BCECF pHi recovery, 96-well plate reader). The format is cell-based. The conditions noted are these: 1 μM, MDA-MB-231 cells, plate reader. As to the method: To perform NHE1 screening with increased throughput, we adapted the conventional cuvette-based NHE1 activity assay to a simple new 96-well plate format using MDA-MB-231 cells that were compatible with common laboratory fluorescence plate readers (see Section 4 for details).
Culture media were removed and replaced with 200 µL 0.2% FBS-containing media with incubation for 3–4 h to stimulate NHE1 activity, followed by incubation for 30 min in the presence of 5 µM 2′,7′-bis(carboxyethyl)-5(6)-carboxyfluorescein-acetoxymethyl ester (BCECF-AM, cat #ab143463, Abcam, Cambridge, United Kingdom). Cells were then washed with 100 µL/well Na^+-free acid-load buffer: 10 mM NH4Cl, 1.8 mM CaCl2, 90 mM N-methyl-D-glucamine (from 1 M stock titrated to pH 7.4 with HCl), 5 mM glucose, 15 mM HEPES, 5 mM KCl, 1 mM MgCl2 (pH 7.5, adjusted with KOH), and incubated at 37 °C for a further 30 min. Acid-load buffer was removed and replaced with Na^+-containing assay buffer: 100 mM NaCl, 1.8 mM CaCl2, 5 mM glucose, 15 mM HEPES, 5 mM KCl, 1 mM MgCl2 containing serial dilution of each compound or DMSO vehicle, and changes in fluorescence were read immediately using a BMG Labtech POLARstar OMEGA (BMG Labtech GmbH, Offenburg, Germany) plate reader according to the parameters in Table S1. Compounds were tested at n = 3 technical replicates per concentration per plate. BCECF-AM-free cells were treated with matched concentrations of each compound to correct for intrinsic fluorescence. DMSO was present in all wells at a final concentration of 1% v/v. Inhibition of NHE1-mediated pHi recovery was determined by ratiometric calculation of the change in blank-corrected pH-sensitive fluorescence divided by the isobestic fluorescence for each well over time. […] (0% activity) controls present on each plate. IC50 values were determined through fitting of Log-10 transformed data using the “log(inhibitor) versus normalised response–variable slope” non-linear function in GraphPad PRISM v8.0 software package (GraphPad Software, San Diego, CA, USA).
`COc1ccc2oc(-c3nc(C(=O)NC(=N)N)c(N)nc3N)cc2c1` [compound 14] gave an inhibition at 1 µM of 4%.
`N=C(N)NC(=O)c1nc(-c2cc3ncccc3o2)c(N)nc1N` [compound 20] yielded an inhibition at 1 µM of 0%.
`COc1ccc2oc(-c3nc(C(=O)NC(=N)N)c(N)nc3N3CCCCCC3)cc2c1` [compound 15] had an inhibition at 1 µM of 34%.
The same measure, in the same setting: in the case of `N=C(N)NC(=O)c1nc(-c2cc3ccccc3o2)c(N2CCCC2)nc1N` [compound 31] it was 18%; in that of `N=C(N)NC(=O)c1nc(-c2cc3cc(Br)ccc3o2)c(N)nc1N` [compound 12], 0%.
As to `COc1ncc(-c2nc(C(=O)NC(=N)N)c(N)nc2N)cn1` [compound 25], at 1 µM the inhibition was 0%.
`N=C(N)NC(=O)c1nc(-c2cc3ncccc3o2)c(N2CCCCCC2)nc1N` [compound 21]: at 1 µM the inhibition was 2%.
Consider `Cc1ccc2oc(-c3nc(C(=O)NC(=N)N)c(N)nc3N)cc2c1` [compound 6], for which the inhibition at 1 µM turned out to be 0%.
The same measure, in the same setting: in the case of `N=C(N)NC(=O)c1nc(-c2ccc(C(F)(F)F)cc2)c(C2CC2)nc1N` [compound 40] it was 28%.
`N=C(N)NC(=O)c1nc(-c2cc3cc(Br)ccc3o2)c(N2CCCCCC2)nc1N` [compound 13]: the inhibition at 1 µM worked out at 0%.
As for `N=C(N)NC(=O)c1nc(-c2cc3ccccc3o2)c(N2CCCCC2)nc1N` [compound 32], the inhibition at 1 µM amounted to 69%.
Turning to `N=C(N)NC(=O)c1nc(-c2cc3ccccc3o2)c(N2CCCOCC2)nc1N` [compound 37], testing at 1 µM gave an inhibition of 55%.
`N=C(N)NC(=O)c1nc(-c2ccc(C(F)(F)F)cc2)c(N2CCCCCC2)nc1N` [compound 23] gave an inhibition at 1 µM of 77%.
Still for that read-out and setting: to `N=C(N)NC(=O)c1nc(-c2cc3cc(F)cc(F)c3o2)c(N2CCCCCC2)nc1N` [compound 17] belongs 0%.
Compound `N=C(N)NC(=O)c1nc(-c2cncnc2)c(N2CCOCC2)nc1N` [compound 41] displayed an inhibition at 1 µM of 77%.

Still in this series, the particulars now being: 10 μM, MDA-MB-231 cells, plate reader.
`COc1ccc2oc(-c3nc(C(=O)NC(=N)N)c(N)nc3N)cc2c1` [compound 14] gave an inhibition at 10 µM of 36%.
In the case of `N=C(N)NC(=O)c1nc(-c2cc3ncccc3o2)c(N)nc1N` [compound 20], 10 µM produced 31% inhibition.
`COc1ccc2oc(-c3nc(C(=O)NC(=N)N)c(N)nc3N3CCCCCC3)cc2c1` [compound 15] registered an inhibition at 10 µM of 91%.
Compound `N=C(N)NC(=O)c1nc(-c2cc3ccccc3o2)c(N2CCCC2)nc1N` [compound 31] showed an inhibition at 10 µM of 85%.
In turn, `N=C(N)NC(=O)c1nc(-c2cc3cc(Br)ccc3o2)c(N)nc1N` [compound 12] gave an inhibition at 10 µM of 97%.
For the compound `COc1ncc(-c2nc(C(=O)NC(=N)N)c(N)nc2N)cn1` [compound 25], testing at 10 µM gave an inhibition of 18%.
In turn, `N=C(N)NC(=O)c1nc(-c2cc3ncccc3o2)c(N2CCCCCC2)nc1N` [compound 21] had an inhibition at 10 µM of 100%.
For the compound `Cc1ccc2oc(-c3nc(C(=O)NC(=N)N)c(N)nc3N)cc2c1` [compound 6], 10 µM produced 71% inhibition.
For the compound `N=C(N)NC(=O)c1nc(-c2ccc(C(F)(F)F)cc2)c(C2CC2)nc1N` [compound 40], the inhibition at 10 µM was 80%.
`N=C(N)NC(=O)c1nc(-c2cc3cc(Br)ccc3o2)c(N2CCCCCC2)nc1N` [compound 13] registered an inhibition at 10 µM of 0%.
As to `N=C(N)NC(=O)c1nc(-c2cc3ccccc3o2)c(N2CCCCC2)nc1N` [compound 32], the inhibition at 10 µM was determined as 100%.
`N=C(N)NC(=O)c1nc(-c2cc3ccccc3o2)c(N2CCCOCC2)nc1N` [compound 37]: the inhibition at 10 µM is 96%.
As to `N=C(N)NC(=O)c1nc(-c2ccc(C(F)(F)F)cc2)c(N2CCCCCC2)nc1N` [compound 23], the inhibition at 10 µM came to 100%.
With `N=C(N)NC(=O)c1nc(-c2cc3cc(F)cc(F)c3o2)c(N2CCCCCC2)nc1N` [compound 17], the inhibition at 10 µM came out at 90%.
Still for that read-out and setting: to `N=C(N)NC(=O)c1nc(-c2cncnc2)c(N2CCOCC2)nc1N` [compound 41] belongs 87%.

Test system in another series: not listed separately
The series is described as follows: Cell viability (cytotoxicity) assay. The class given is cell-based. The settings on record: human, MDA-MB-231 cells, 48 h treatment. Here is the method:
On the day of treatment, respective compounds were serially diluted using a semi-logarithmic dilution series from 20 mM stocks in neat DMSO into DMEM-high glucose media (10% v/v FBS) in a separate 96-well plate and under sterile conditions. Thereafter, 10 μL of the diluted compounds at their respective concentrations (n = 4) were added to the cells. […] Vehicle media blanks or drug blanks were also included to correct for inherent colour of the compounds and phenol red-containing media. Following 48 h treatment, 20 μL CellTitre 96® Aqueous One Solution Cell Proliferation Assay (Promega, Madison, USA) was added to each well, plates were incubated for 2 h, and absorbance was measured at 490 nm using a SpectraMax Plus 384-well plate reader (Molecular Devices LLC, San Jose, USA) and Softmax PRO v7.0 software. Blank-corrected data were analysed and graphed using GraphPad PRISM v8.0 software (GraphPad Software, San Diego, CA USA).
As for `COc1ccc2oc(-c3nc(C(=O)NC(=N)N)c(N)nc3N)cc2c1` [compound 14], the half-inhibitory concentration (IC50) at 48 h was above 100 µM.
Regarding `N=C(N)NC(=O)c1nc(-c2cc3ncccc3o2)c(N)nc1N` [compound 20], the 50% inhibitory concentration (IC50) at 48 h was above 100 µM.
Turning to `COc1ccc2oc(-c3nc(C(=O)NC(=N)N)c(N)nc3N3CCCCCC3)cc2c1` [compound 15], the midpoint of inhibition, the IC50 at 48 h, lay at 25.1 µM.
Compound `N=C(N)NC(=O)c1nc(-c2cc3ccccc3o2)c(N2CCCC2)nc1N` [compound 31] had an IC50 at 48 h of 22.7 µM.
Take `N=C(N)NC(=O)c1nc(-c2cc3cc(Br)ccc3o2)c(N)nc1N` [compound 12]: the IC50 at 48 h came out at 32.1 µM.
In turn, `COc1ncc(-c2nc(C(=O)NC(=N)N)c(N)nc2N)cn1` [compound 25] showed an IC50 at 48 h above 100 µM.
On the same count and under the same terms, in the case of `N=C(N)NC(=O)c1nc(-c2cc3ncccc3o2)c(N2CCCCCC2)nc1N` [compound 21] it was 43.1 µM.
As for `Cc1ccc2oc(-c3nc(C(=O)NC(=N)N)c(N)nc3N)cc2c1` [compound 6], it took 11.7 µM to reach half-maximal inhibition (IC50 at 48 h).
Turning to `N=C(N)NC(=O)c1nc(-c2ccc(C(F)(F)F)cc2)c(C2CC2)nc1N` [compound 40], the IC50 at 48 h is 26.6 µM.
On the same count and under the same terms, in the case of `N=C(N)NC(=O)c1nc(-c2cc3cc(Br)ccc3o2)c(N2CCCCCC2)nc1N` [compound 13] it was 6.2 µM; in that of `N=C(N)NC(=O)c1nc(-c2cc3ccccc3o2)c(N2CCCCC2)nc1N` [compound 32], 16.2 µM; in that of `N=C(N)NC(=O)c1nc(-c2cc3ccccc3o2)c(N2CCCOCC2)nc1N` [compound 37], 54 µM.
Consider `N=C(N)NC(=O)c1nc(-c2ccc(C(F)(F)F)cc2)c(N2CCCCCC2)nc1N` [compound 23], for which 14.7 µM corresponded to half-maximal inhibition (IC50 at 48 h).
Take `N=C(N)NC(=O)c1nc(-c2cc3cc(F)cc(F)c3o2)c(N2CCCCCC2)nc1N` [compound 17]: the IC50 at 48 h is 8.8 µM.
On the same count and under the same terms, in the case of `N=C(N)NC(=O)c1nc(-c2cncnc2)c(N2CCOCC2)nc1N` [compound 41] it was above 100 µM.
